Experimental data: ChEMBL document CHEMBL2157946, “Hydrolytic instability of the important orexin 1 receptor antagonist SB-334867: possible confounding effects on in vivo and in vitro studies” (Bioorg Med Chem Lett, 2012)

What was measured:
[1] = Chemical stability of the compound stored under argon in tightly sealed amber bottle at 15 degC assessed as 1-(2-hydroxy-4-{[(1,5-naphthyridin-4-yl)carbamoyl]amino} phenyl)acetamide formation after 10 months by NMR analysis; format: physicochemical; details: 7305 h
[2] = Chemical stability of the compound stored under argon in tightly sealed amber bottle at 15 degC assessed as 1-(2-hydroxy-4-{[(1,5-naphthyridin-4-yl)carbamoyl]amino} phenyl)acetamide formation after 10 months by mass spectrometry analysis; format: physicochemical; details: 7305 h
[3] = Chemical stability of the compound as refrigerated solution in 100 % DMSO stored in teflon sealed container up to 3 months by NMR analysis; format: physicochemical
[4] = Solubility of the compound in ACSF at 1.6 mg at room temperature after 45 mins by sonication method; format: physicochemical; details: in vivo, 0.75 h
Rattus norvegicus [5] = assay: Antagonist activity at OX1 receptor in rat assessed as decrease in alcoholic response at 5 mg/kg, ip; format: functional; design: scale not given: the % may be the effect or the level left; details: route intraperitoneal
[6] = Solubility of the compound in DMSO at 7.5 mg at room temperature after 15 mins by sonication method in presence of encapsin; format: physicochemical; details: in vivo, 0.25 h
Rattus norvegicus [7] = assay: Antagonist activity at OX1 receptor in rat assessed as decrease in alcoholic response at 20 mg/kg, ip after 30 mins; format: functional; design: scale not given: the % may be the effect or the level left; details: route intraperitoneal
[8] = biological target: T1, Orexin/Hypocretin receptor type 1 (Homo sapiens, UniProt O43613); assay: Antagonist activity at OX1 receptor expressed in RD-HGA16 cells assessed as inhibition of orexin A-induced intracellular calcium mobilization after 15 mins by FLIPR assay; format: functional, cell-based
T1 sequence (O43613 whole entry): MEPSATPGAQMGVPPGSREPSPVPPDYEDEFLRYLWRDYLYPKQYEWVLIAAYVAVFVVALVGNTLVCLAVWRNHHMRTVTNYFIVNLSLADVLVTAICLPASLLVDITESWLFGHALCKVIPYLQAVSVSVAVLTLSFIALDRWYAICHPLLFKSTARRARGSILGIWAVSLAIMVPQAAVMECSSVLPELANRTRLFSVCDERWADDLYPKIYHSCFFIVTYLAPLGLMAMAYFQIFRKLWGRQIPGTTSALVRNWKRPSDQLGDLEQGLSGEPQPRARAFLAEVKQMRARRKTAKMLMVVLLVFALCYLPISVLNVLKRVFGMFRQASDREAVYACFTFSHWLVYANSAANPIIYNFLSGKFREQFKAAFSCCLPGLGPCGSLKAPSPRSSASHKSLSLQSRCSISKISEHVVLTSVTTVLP

## Cc1nc2ccc(NC(=O)Nc3ccnc4cccnc34)cc2o1.Cl
[1]
  Stability: Unstable
[2]
  Stability: Unstable

## Cc1nc2ccc(NC(=O)Nc3ccnc4cccnc34)cc2o1
[3]
  Stability: Stable
[4]
  solubility: Insoluble
Rattus norvegicus [5]
  Activity: 75%
[6]
  solubility: Insoluble
Rattus norvegicus [7]
  Activity: 50%

## CC(=O)Nc1ccc(NC(=O)Nc2ccnc3cccnc23)cc1O
[8]
  IC50: > 30 µM
